# From PubChem BioAssay (NCI)
# “And” between values parts separate entries of the source, which are not always exact repeats. Equal values may be shown once.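 Assay format: 96-well plates, 48-hour exposure. GI50: concentration for 50% inhibition of growth. TGI is the concentration that stops growth completely.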
# Tests used:
# Test in all cases: growth of human tumour cells (NCI), 48 h
# [1] = system: ACHN renal
# [2] = system: HL-60(TB) leukemia
# [3] = system: IGROV1 ovarian
# [4] = system: NCI-H23 lung
# [5] = system: NCI-H460 lung
# [6] = system: NCI-H522 lung
# [7] = system: OVCAR-4 ovarian
# [8] = system: SF-539 CNS
# [9] = system: SK-MEL-28 melanoma
# [10] = system: SR leukemia
SMILES,GI50 [1],TGI [1],GI50 [2],TGI [2],GI50 [3],TGI [3],GI50 [4],TGI [4],GI50 [5],TGI [5],GI50 [6],TGI [6],GI50 [7],TGI [7],GI50 [8],TGI [8],GI50 [9],TGI [9],GI50 [10],TGI [10]
O=C(Nc1ccc(Cl)cc1)c1cc(NCc2cc(O)ccc2O)ccc1O,3.37 µM,15.1 µM,1.4 µM,4.86 µM,11.2 µM,38.8 µM,11.8 µM,31.4 µM,13.3 µM,33.2 µM,0.488 µM,1.88 µM,2.9 µM,> 100 µM,1.73 µM,4.16 µM,10.1 µM,22.4 µM,3.84 µM,> 100 µM
COc1ccc2cc(C(=O)N3CCC([C@@H](C)C(=O)NCc4ccc5c(c4)OCO5)CC3)[nH]c2c1,48.1 µM,> 100 µM,> 100 µM,> 100 µM,> 100 µM,> 100 µM,> 100 µM,> 100 µM,> 100 µM,> 100 µM,> 100 µM,> 100 µM,> 100 µM,> 100 µM,> 100 µM,> 100 µM,> 100 µM,> 100 µM,> 100 µM,> 100 µM
OCC1CC2C=CCC(C2)C1 (centres undefined),–,> 100 µM,–,> 100 µM,–,> 100 µM,–,> 100 µM,–,> 100 µM,–,> 100 µM,–,> 100 µM,–,> 100 µM,–,> 100 µM,–,> 100 µM
CCCCNC(=O)Oc1ccc(/C(=C(\C)c2ccc(OC)cc2)c2ccc(OCCN3CCCCC3)cc2)cc1,3.12 µM,10.7 µM,1.53 µM,3.58 µM,2.6 µM,6.46 µM,4.06 µM,21.4 µM,1.94 µM,3.86 µM,3.42 µM,11.4 µM,2.29 µM,8.2 µM,1.64 µM,3.12 µM,1.75 µM,3.4 µM,1.59 µM,4.63 µM
CSc1nc2c(nc(N)n2C2OC(CO)C(O)C(O)C2O)c(=O)[nH]1 (centres undefined),–,> 100 µM,–,> 100 µM,–,> 100 µM,–,> 100 µM,–,> 100 µM,–,> 100 µM,–,> 100 µM,–,> 100 µM,–,> 100 µM,–,> 100 µM
C[C@]12CC[C@@H]3c4ccc(O)cc4CC[C@H]3[C@@H]1CC(Cc1ccccc1)(Cc1ccccc1)C2=O,14.5 µM,27.9 µM,4.75 µM,20.9 µM,20.3 µM,41.5 µM,14.3 µM,28.2 µM,12.1 µM,38.1 µM,16.6 µM,36.3 µM,12.7 µM,27.3 µM,18.6 µM,36.8 µM,19.8 µM,36.9 µM,4.87 µM,36.1 µM
[Mn+3].[O-][Cl+3]([O-])([O-])O.[O-]c1ccccc1C=NCCN1CC1.[O-]c1ccccc1C=NCCN1CC1,23.5 µM,72.9 µM,14.7 µM,37 µM,20.9 µM,62.3 µM,15.4 µM,52.8 µM,27 µM,> 100 µM,27.8 µM,> 100 µM,15.4 µM,> 100 µM,30.6 µM,> 100 µM,35.8 µM,> 100 µM,18.4 µM,39.4 µM
CCOc1ccc(Nc2ccnc3cc(Cl)ccc23)cc1,49.6 µM,> 100 µM,> 100 µM,> 100 µM,> 100 µM,> 100 µM,> 100 µM,> 100 µM,29.1 µM,> 100 µM,26.4 µM,86.6 µM,78.3 µM,> 100 µM,29.4 µM,> 100 µM,> 100 µM,> 100 µM,14.7 µM,> 100 µM
C#Cc1cccc(Nc2nc(C)nc3cc(NC(=O)CCl)ccc23)c1,2.98 µM,6.67 µM,2.63 µM,7.67 µM,0.533 µM,1.37 µM,2.35 µM,7.03 µM,3.23 µM,7.19 µM,0.454 µM,0.92 µM,1.83 µM,6.05 µM,3.34 µM,6.6 µM,3.7 µM,7.41 µM,0.561 µM,2.24 µM
Cc1ccc(NC(=O)C(=O)C2C(=O)NC(=O)NC2=O)c(C)c1,–,> 100 µM,–,> 100 µM,–,> 100 µM,–,> 100 µM,–,> 100 µM,–,> 100 µM,–,> 100 µM,–,> 100 µM,–,> 100 µM,–,> 100 µM
CN1C(c2ccccc2)CC(=NO)CC1c1ccccc1 (centres undefined),–,> 100 µM,22 µM,40.7 µM and 68 µM,–,> 100 µM,–,> 100 µM,41.2 µM,> 100 µM,39.7 µM,> 100 µM,–,> 100 µM,–,> 100 µM,–,> 100 µM,24.9 µM,> 100 µM and 80.1 µM
CCC(CO)Nc1nc(NCc2ccccc2)c2n[nH]c(C(C)C)c2n1 (centres undefined),4.42 µM,16.9 µM,4.87 µM,21 µM,3.44 µM,25.6 µM,12.3 µM,31.2 µM,4.94 µM,19.4 µM,14.5 µM,34.1 µM,6.81 µM,25.6 µM,12.7 µM,26.1 µM,10.5 µM,27.7 µM,3.24 µM,10.6 µM
CC[C@H](C)[C@H](NC(=O)c1ncccn1)C(=O)N(C)[C@H](C[C@@H](OC(C)=O)c1nc(C(=O)N[C@@H](Cc2ccccc2)C[C@H](C)C(=O)OC)cs1)C(C)C,4.07 µM,> 25 µM,0.588 µM,1.26 µM,1.38 µM,> 25 µM,5.4 µM,> 25 µM,0.925 µM,> 25 µM,1.01 µM,7.37 µM,4.42 µM,> 25 µM,2.53 µM,11.9 µM,3.51 µM,> 25 µM,0.213 µM,> 25 µM
CC1(C)CC[C@]2(C(=O)NCCNCCN)CC[C@]3(C)C(=CC[C@@H]4[C@@]5(C)CCC(=O)C(C)(C)[C@@H]5CC[C@]43C)[C@@H]2C1,1.77 µM,3.2 µM,2.07 µM,4.71 µM,1.69 µM,3.11 µM,1.9 µM,3.71 µM,1.86 µM,3.51 µM,1.78 µM,3.91 µM,1.89 µM,3.66 µM,1.72 µM,3.11 µM,1.75 µM,3.2 µM,1.7 µM,4.76 µM
COc1ccc2c(c1)c1ccc3c(c1n2C)C(=O)C=CC3=O,–,14.9 µM,–,4.94 µM,–,28.3 µM,–,32.2 µM,–,61.2 µM,–,7.35 µM,–,15.6 µM,–,28 µM,–,22.5 µM,–,5.59 µM
O=c1cc(-c2ccccc2)oc2c(O)c(O)ccc12,5.69 µM,> 100 µM,11.1 µM,55.3 µM,6.99 µM,47.1 µM,6.27 µM,> 100 µM,4.44 µM,> 100 µM,8.27 µM,> 100 µM,3.73 µM,> 100 µM,14.6 µM,> 100 µM,11.4 µM,> 100 µM,3.35 µM,> 100 µM
Cn1cnc(SC2=CC(=O)C=C3S[C@H]4C[C@@]23c2c(c(O)c3c5c2=NCCC=5C=N3)N4)c1CC(N)C(=O)O (some centres undefined),15.6 µM,29.1 µM,3.18 µM,8.27 µM,11.6 µM,23.9 µM,–,15.2 µM,16.2 µM,31.6 µM,2.42 µM,5.74 µM,13.4 µM,26.2 µM,16.6 µM,30.8 µM,16.2 µM,30.4 µM,20.9 µM,98.9 µM
C=C[C@@H]1CCC/C=C/[C@@H]2C[C@H](O)C[C@H]2[C@H](O)/C=C/C(=O)O1,1.03 µM,> 100 µM,2.23 µM,> 25.2 µM,1.7 µM,> 100 µM,0.475 µM,16.6 µM,3.76 µM,> 100 µM,1.52 µM,4.24 µM,0.407 µM,> 94.6 µM,0.65 µM,> 100 µM,0.34 µM,1.2 µM,1.64 µM,> 28 µM
COC(=O)C(/C(=N/N)C(=O)Nc1cc(Cl)ccc1Cl)c1nc2ccc([N+](=O)[O-])cc2[nH]c1=O (centres undefined),–,> 100 µM,–,> 100 µM,–,> 100 µM,–,> 100 µM,–,> 100 µM,–,> 100 µM,–,> 100 µM,–,> 100 µM,–,> 100 µM,–,> 100 µM
COc1ccc(Cc2ccc3[nH]c(=O)cc(C)c3c2)cc1S(=O)(=O)O,–,> 100 µM,–,> 100 µM,–,> 100 µM,–,> 100 µM,–,> 100 µM,–,> 100 µM,–,> 100 µM,–,> 100 µM,–,> 100 µM,–,> 100 µM
O=[N+]([O-])c1cc(I)cc(/C=N/NS(=O)(=O)c2ccc(F)cc2)c1O,–,81.5 µM,–,54.4 µM,–,95.7 µM,–,38.9 µM,–,44 µM,–,40.9 µM,–,> 100 µM,–,55.8 µM,–,81.6 µM,–,46.2 µM
COc1ccc2c(c1)/C(=C\c1c(-c3ccccc3)nc3sccn13)C(=O)N2,1.23 µM,14.7 µM,5.09 µM,> 35.6 µM,13.9 µM,52.3 µM,1.97 µM,6.85 µM,7.08 µM,> 24.4 µM,27 µM,67.3 µM,15.6 µM,> 96.8 µM,8.23 µM,20.5 µM,2.61 µM,21.9 µM,24 µM,> 100 µM
CC1CCCc2c1n[nH]c2CC1CC(=O)NC(=O)C1 (centres undefined),–,> 100 µM,–,> 100 µM,–,> 100 µM,–,> 100 µM,–,> 100 µM,–,> 100 µM,–,> 100 µM,–,> 100 µM,–,> 100 µM,–,> 100 µM
O=C(O)c1nn(-c2ccc(Cl)cc2)c2c1C(=O)c1ccccc1C2=O,–,> 100 µM,–,> 100 µM,–,> 100 µM,–,> 100 µM,–,> 100 µM,–,> 100 µM,–,> 100 µM,–,67.4 µM,–,> 100 µM,–,78.7 µM
COc1ccc(/C=C/c2cc(OC)c(OC)c(OC)c2)cc1OC,–,> 100 µM,–,> 100 µM,–,> 100 µM,–,> 100 µM,–,> 100 µM,–,> 100 µM,–,> 100 µM,–,> 100 µM,–,> 100 µM,–,> 100 µM
CCOC(=O)NC(=O)c1cn(C2CCCCC2)c(=O)n(C)c1=O,–,> 100 µM,–,> 100 µM,–,> 100 µM,–,> 100 µM,–,> 100 µM,–,> 100 µM,–,> 100 µM,–,> 100 µM,–,> 100 µM,–,> 100 µM
N#Cc1c(N)c(C(=O)c2ccc3c(c2)OCCO3)n2c1CCCC2,7.42 µM,> 100 µM,2.8 µM,> 27 µM,6.92 µM,> 100 µM,4.64 µM,> 100 µM,3.19 µM,> 100 µM,0.58 µM,–,> 69.1 µM,> 100 µM,2.38 µM,7.63 µM,4.5 µM,> 100 µM,0.869 µM,> 100 µM
COc1cccc(/C=C2\N=C(Cl)OC2=O)c1O,–,> 100 µM,–,> 100 µM,–,> 100 µM,–,> 100 µM,–,> 100 µM,–,> 100 µM,–,> 100 µM,–,> 100 µM,–,> 100 µM,–,> 100 µM
COC(=O)[C@@H](C)C[C@H](Cc1ccccc1)NC(=O)c1csc([C@@H](C[C@H](C(C)C)N(C)C(=O)[C@@H](NC(=O)[C@H]2CCCCN2C)c2ccc(F)cc2)OC(C)=O)n1,–,25 µM and > 100 µM,0.00219 µM,–,–,25 µM and > 100 µM,–,25 µM and > 100 µM,–,25 µM and > 100 µM,0.00259 µM and 0.0234 µM,–,–,25 µM and > 100 µM,0.0215 µM and 0.0604 µM,0.0662 µM and 0.615 µM,–,> 100 µM,0.00065 µM and 0.0025 µM,6.84 µM and 17.6 µM
